Like-named read-outs stand apart in the source and are kept apart here.
Experiments:
[1] = tested on: advanced NSCLC; conditions: 75 patients with qRT-PCR results
[2] = patients with cancer, 150 mg/day; compared with targeted average plasma concentration; cited from earlier work
[3] = tested on: NSCLC; conditions: single agent, NSCLC patients after failure of standard therapy for advanced disease; cited from earlier work
[4] = tested on: NSCLC; conditions: cited from earlier work
[5] = tested on: NSCLC; conditions: second line therapy of NSCLC; cited from earlier work

C#Cc1cccc(Nc2ncnc3cc(OCCOC)c(OCCOC)cc23)c1 [Tarceva, erlotinib]
PD [1]: 39 (52%) n (%)
partial response (PR) [1]: 4 (5%) n (%)
drug levels in plasma [2]: > 500 ng/mL
survival [3]: significantly prolongs and improves the survival

CC(=O)O[C@@]12CO[C@@H]1C[C@H](O)[C@@]1(C)C(=O)[C@H](O)C3=C(C)[C@@H](OC(=O)[C@H](O)[C@@H](NC(=O)OC(C)(C)C)c4ccccc4)C[C@@](O)([C@@H](OC(=O)c4ccccc4)[C@H]21)C3(C)C [docetaxel]
survival, third-line treatment or beyond ([4]; docetaxel as third-line treatment or beyond): no prolongation of survival
survival ([4]; second line after cisplatin-based first-line regimens failed, ECOG 0, 1 or 2): improved survival

Nc1nc2[nH]cc(CCc3ccc(C(=O)N[C@@H](CCC(=O)O)C(=O)O)cc3)c2c(=O)[nH]1 [pemetrexed]
efficacy compared with docetaxel [5]: clinically equivalent efficacy
side effects compared with docetaxel [5]: significantly fewer side effects
